# Source: PMC10410440, “Preclinical PK investigation of a novel IDO1/TDO dual inhibitor—SHR9146 in mouse plasma and tissues by LC-MS/MS” (Frontiers in Oncology, 2023)
# Several values for one entry are separate records, joined by “and”; a condition that tells them apart may be missing. Identical values can stand only once. Like-named read-outs stand apart in the source and are kept apart here.
# Assay: Tissue distribution of SHR9146 in mice after oral gavage of 40 mg/kg
# Assay type: in vivo, ICR mice
# Conditions: 40 mg/kg, 40 mg/kg oral gavage; for concentration at 1 h / concentration at 3 h / concentration at 6 h / concentration at 24 h: female, ICR, mouse, po
# Experimental: ICR mice with body weight 16–26 g were supplied by Shanghai Lingchang Biotechnology Co., Ltd. (animal breeding license number SCXK (Shanghai) 2013-0018) and housed at Shanghai Institute of Materia Medica, Chinese Academy of Sciences [animal use license number SYXK (Shanghai) 2015-0027]. The mice used in this study were fasted overnight for 12 h but had free access to water. Food was supplied 4 h post-dose. All experiments in this study were conducted in accordance with the Guidelines for the Care and Use of Laboratory Animals of Shanghai Institute of Materia Medica, Chinese Academy of Sciences.
# Another set of 30 mice were randomly assigned into five groups with equal numbers, males and females, for tissue distribution study with oral gavage at a single dose of 40 mg/kg at predetermined different time points: pre-dose and post dose at 1, 3, 6, and 24 h, respectively. The whole brain, heart, liver, spleen, lung, kidney, bladder, pancreas, testis, ovary, uterus, stomach, small intestine, adrenal gland, skin, skeletal muscle, thyroid gland, and abdominal fat tissues as well as the whole blood and plasma samples were harvested. Tissue samples were washed with 0.9% sodium chloride solution to remove the residual blood or contents, blotted on a filter paper, and stored at −70°C prior to the analysis.
# Protein precipitation was selected for the pretreatment of both the plasma and the tissue homogenate prepared after thawing at room temperature, cut into pieces, and homogenized with a quintuple methanol–water mixture (1:1, v/v) for each tissue sample.
# Briefly as follows, an aliquot of 25-μL plasma or tissue homogenate was spiked with 100 μL of internal standard solution (1 μg/mL for plasma, 0.2 μg/mL for tissue homogenate) and 300 μL of methanol added and vortex mixed for 60 s. The mixture was then centrifuged at 14,000 rpm at 4°C for 5.0 min, and the supernatant was diluted with methanol–water (4:1, v/v) in a ratio of 1:9 for the plasma or 1:1 for the tissue homogenate, and 5 μL of the resulting solution was injected for the LC-MS/MS analysis.
# After oral administration of 40 mg/kg SHR9146, samples in different tissues at predetermined time points (pre-drug administration, post-drug administration at 1, 3, 6, and 24 h) were collected and prepared for the analysis. The drug concentrations of SHR9146 (μg/g or μg/mL) were determined for each mouse, and the mean and standard deviation were further obtained (Table S7).
# [1] = kidney, Mean (n=3), read-out: SHR9146 concentration in Kidney
# [2] = liver, Mean (n=3), read-out: SHR9146 concentration in Liver
# [3] = lung, Mean (n=3), read-out: SHR9146 concentration in Lung
# [4] = ovary, Mean (n=3), read-out: SHR9146 concentration in Ovary
# [5] = pancreas, Mean (n=3), read-out: SHR9146 concentration in Pancreas
# [6] = plasma, Mean (n=3), read-out: SHR9146 concentration in Plasma
# [7] = skeletal muscle, Mean (n=3), read-out: SHR9146 concentration in Skeletal muscle
# [8] = skin, Mean (n=3), read-out: SHR9146 concentration in Skin
# [9] = small intestine, Mean (n=3), read-out: SHR9146 concentration in Small intestine
# [10] = spleen, Mean (n=3), read-out: SHR9146 concentration in Spleen
# [11] = stomach, Mean (n=3), read-out: SHR9146 concentration in Stomach
# [12] = stomach, individual mice, read-out: SHR9146 concentration in Stomach
# [13] = thyroid gland, Mean (n=3), read-out: SHR9146 concentration in thyroid gland
# [14] = uterus, Mean (n=3), read-out: SHR9146 concentration in Uterus
# [15] = whole blood, Mean (n=3), read-out: SHR9146 concentration in Whole blood
compound,measurement,setting,value
OCCn1cc(-c2ccc(N3CCC([C@H]4c5c(F)cccc5-c5cncn54)CC3)cc2)cn1 [SHR9146],concentration at 1 h,"kidney, 1 h, individual mice, read-out: SHR9146 concentration in Kidney",13100 ng/g
same,concentration at 3 h,[1],12700 ng/g
same,concentration at 6 h,[1],1430 ng/g
same,concentration at 1 h,"liver, 1 h, Mean (n=3), read-out: SHR9146 concentration in Liver",24300 ng/g
same,concentration at 1 h,"liver, 1 h, individual mice, read-out: SHR9146 concentration in Liver",22800 ng/g
same,concentration at 3 h,[2],19800 ng/g
same,concentration at 6 h,[2],1950 ng/g
same,concentration at 24 h,[2],37 ng/g
same,concentration at 24 h,"liver, individual mice, read-out: SHR9146 concentration in Liver",54 ng/g
same,concentration at 1 h,"lung, 1 h, Mean (n=3), read-out: SHR9146 concentration in Lung",16300 ng/g
same,concentration at 1 h,"lung, 1 h, individual mice, read-out: SHR9146 concentration in Lung",13600 ng/g
same,concentration at 3 h,[3],25800 ng/g
same,concentration at 6 h,[3],1380 ng/g
same,concentration at 24 h,[3],165 ng/g
same,concentration at 24 h,"lung, individual mice, read-out: SHR9146 concentration in Lung",154 ng/g
same,concentration at 1 h,"ovary, 1 h, Mean (n=3), read-out: SHR9146 concentration in Ovary",18300 ng/g
same,concentration at 1 h,"ovary, 1 h, individual mice, read-out: SHR9146 concentration in Ovary",17000 ng/g
same,concentration at 3 h,[4],12700 ng/g
same,concentration at 6 h,[4],704 ng/g
same,concentration at 1 h,"pancreas, 1 h, Mean (n=3), read-out: SHR9146 concentration in Pancreas",18000 ng/g
same,concentration at 1 h,"pancreas, 1 h, individual mice, read-out: SHR9146 concentration in Pancreas",15900 ng/g
same,concentration at 3 h,[5],12500 ng/g
same,concentration at 6 h,[5],638 ng/g
same,concentration at 1 h,"plasma, 1 h, Mean (n=3), read-out: SHR9146 concentration in Plasma",13100 ng/mL
same,concentration at 1 h,"plasma, 1 h, individual mice, read-out: SHR9146 concentration in Plasma",11800 ng/mL
same,concentration at 3 h,[6],9070 ng/mL
same,concentration at 6 h,[6],471 ng/mL
same,concentration at 1 h,"skeletal muscle, 1 h, Mean (n=3), read-out: SHR9146 concentration in Skeletal muscle",7800 ng/g
same,concentration at 1 h,"skeletal muscle, 1 h, individual mice, read-out: SHR9146 concentration in Skeletal muscle",6440 ng/g
same,concentration at 3 h,[7],5910 ng/g
same,concentration at 6 h,[7],294 ng/g
same,concentration at 1 h,"skin, 1 h, Mean (n=3), read-out: SHR9146 concentration in Skin",11100 ng/g
same,concentration at 1 h,"skin, 1 h, individual mice, read-out: SHR9146 concentration in Skin",9600 ng/g
same,concentration at 3 h,[8],7700 ng/g
same,concentration at 6 h,[8],498 ng/g
same,concentration at 1 h,"small intestine, 1 h, Mean (n=3), read-out: SHR9146 concentration in Small intestine",21600 ng/g
same,concentration at 1 h,"small intestine, 1 h, individual mice, read-out: SHR9146 concentration in Small intestine",19000 ng/g
same,concentration at 3 h,[9],16400 ng/g
same,concentration at 3 h,"small intestine, individual mice, read-out: SHR9146 concentration in Small intestine",14600 ng/g
same,concentration at 6 h,[9],832 ng/g
same,concentration at 1 h,"spleen, 1 h, Mean (n=3), read-out: SHR9146 concentration in Spleen",6700 ng/g
same,concentration at 1 h,"spleen, 1 h, individual mice, read-out: SHR9146 concentration in Spleen",6190 ng/g
same,concentration at 3 h,[10],4740 ng/g
same,concentration at 6 h,[10],241 ng/g
same,concentration at 1 h,"stomach, 1 h, Mean (n=3), read-out: SHR9146 concentration in Stomach",27800 ng/g
same,concentration at 1 h,"stomach, 1 h, individual mice, read-out: SHR9146 concentration in Stomach",27400 ng/g
same,concentration at 3 h,[11],27200 ng/g
same,concentration at 3 h,[12],29000 ng/g
same,concentration at 6 h,[11],3870 ng/g
same,concentration at 24 h,[11],848 ng/g
same,concentration at 24 h,[12],782 ng/g
same,concentration at 1 h,"thyroid gland, 1 h, Mean (n=3), read-out: SHR9146 concentration in thyroid gland",9550 ng/g
same,concentration at 1 h,"thyroid gland, 1 h, individual mice, read-out: SHR9146 concentration in thyroid gland",8340 ng/g
same,concentration at 3 h,[13],6940 ng/g
same,concentration at 6 h,[13],378 ng/g
same,concentration at 1 h,"uterus, 1 h, Mean (n=3), read-out: SHR9146 concentration in Uterus",10700 ng/g
same,concentration at 1 h,"uterus, 1 h, individual mice, read-out: SHR9146 concentration in Uterus",9740 ng/g
same,concentration at 3 h,[14],6040 ng/g
same,concentration at 6 h,[14],363 ng/g
same,concentration at 1 h,"whole blood, 1 h, Mean (n=3), read-out: SHR9146 concentration in Whole blood",8660 ng/mL
same,concentration at 1 h,"whole blood, 1 h, individual mice, read-out: SHR9146 concentration in Whole blood",7360 ng/mL
same,concentration at 3 h,[15],6190 ng/mL
same,concentration at 6 h,[15],298 ng/mL
same,SHR9146 concentration in Bladder,"male, 1 h, individual mice",13.766 µg/g and 11.095 µg/g
same,SHR9146 concentration in Kidney,"male, 1 h, individual mice",15.501 µg/g and 7.908 µg/g
same,SHR9146 concentration in Liver,"male, 1 h, individual mice",23.893 µg/g and 14.099 µg/g
same,SHR9146 concentration in Lung,"male, 1 h, individual mice",16.090 µg/g and 8.210 µg/g
